{"source": "patent US20100272825A1", "about": "“METHOD OF DISINFECTING CARCASSES” (JOHNSONDIVERSEY, INC., priority 2006, published 2010)", "key": {"[1]": {"system": "Salmonella typhi, ATCC # 6359", "assay": "AOAC Chlorine (Available) in Disinfectants, subculture series", "type": "cell-based", "set-up": "key to Subculture Series 1, growth / Subculture Series 10, growth / Subculture Series 2, growth / Subculture Series 3, growth / Subculture Series 4, growth / Subculture Series 5, growth / Subculture Series 6, growth / Subculture Series 7, growth / Subculture Series 8, growth / Subculture Series 9, growth: + = growth; − = no growth", "procedure": "(§1) The invention will be further appreciated in light of the following detailed examples. In these examples, a chlorine dioxide solution was obtained by forming chlorous acid from an ion exchange resin, running this through a platinum catalyst to form chlorine dioxide. The chlorine dioxide obtained from the ion exchange resin catalyst combination was generally at about 650-750 ppm at a pH of about 2, which was then diluted with an acid solution of sodium bisulfate to reach the desired use concentration as set forth in the examples."}, "[2]": {"system": "Salmonella typhi, ATCC # 6539", "assay": "Sanitizing effectiveness: modified Germicidal and Detergent Sanitizing Action of Disinfectants, A.O.A.C.", "type": "cell-based", "settings": "1 ppm Chlorine Dioxide; for Survivors: initial 116,000,000 org/ml", "procedure": "as §1"}, "[3]": {"settings": "pH 2.0, contact 10 seconds 25° C."}, "[4]": {"settings": "pH 2.5, contact 10 seconds 25° C."}, "[5]": {"settings": "pH 3.0, contact 10 seconds 25° C."}, "[6]": {"settings": "pH 3.5, contact 10 seconds 25° C."}, "[7]": {"settings": "pH 4.0, contact 10 seconds 25° C."}}, "note": "Values joined by “and” are separate entries in the source; they are usually repeats but may differ in a detail not shown here. Equal entries are not always repeated."}
{"smiles": "[Na+].[O-]Cl", "note": "[NaOCl, sodium hypochlorite, reference compound]", "values": [{"measurement": "Subculture Series 1, growth", "setting": "[1]; NaOCl 50 ppm", "value": "−"}, {"measurement": "Subculture Series 2, growth", "setting": "[1]; NaOCl 50 ppm", "value": "+"}, {"measurement": "Subculture Series 3, growth", "setting": "[1]; NaOCl 50 ppm", "value": "+"}, {"measurement": "Subculture Series 4, growth", "setting": "[1]; NaOCl 50 ppm", "value": "+"}, {"measurement": "Subculture Series 5, growth", "setting": "[1]; NaOCl 50 ppm", "value": "+"}, {"measurement": "Subculture Series 1, growth", "setting": "[1]; NaOCl 100 ppm", "value": "−"}, {"measurement": "Subculture Series 2, growth", "setting": "[1]; NaOCl 100 ppm", "value": "−"}, {"measurement": "Subculture Series 3, growth", "setting": "[1]; NaOCl 100 ppm", "value": "−"}, {"measurement": "Subculture Series 4, growth", "setting": "[1]; NaOCl 100 ppm", "value": "−"}, {"measurement": "Subculture Series 5, growth", "setting": "[1]; NaOCl 100 ppm", "value": "+"}, {"measurement": "Subculture Series 6, growth", "setting": "[1]; NaOCl 100 ppm", "value": "+"}, {"measurement": "Subculture Series 7, growth", "setting": "[1]; NaOCl 100 ppm", "value": "+"}, {"measurement": "Subculture Series 8, growth", "setting": "[1]; NaOCl 100 ppm", "value": "+"}, {"measurement": "Subculture Series 9, growth", "setting": "[1]; NaOCl 100 ppm", "value": "+"}, {"measurement": "Subculture Series 10, growth", "setting": "[1]; NaOCl 100 ppm", "value": "+"}, {"measurement": "Subculture Series 1, growth", "setting": "[1]; NaOCl 200 ppm", "value": "−"}, {"measurement": "Subculture Series 2, growth", "setting": "[1]; NaOCl 200 ppm", "value": "−"}, {"measurement": "Subculture Series 3, growth", "setting": "[1]; NaOCl 200 ppm", "value": "−"}, {"measurement": "Subculture Series 4, growth", "setting": "[1]; NaOCl 200 ppm", "value": "−"}, {"measurement": "Subculture Series 5, growth", "setting": "[1]; NaOCl 200 ppm", "value": "−"}, {"measurement": "Subculture Series 6, growth", "setting": "[1]; NaOCl 200 ppm", "value": "−"}, {"measurement": "Subculture Series 7, growth", "setting": "[1]; NaOCl 200 ppm", "value": "−"}, {"measurement": "Subculture Series 8, growth", "setting": "[1]; NaOCl 200 ppm", "value": "+"}, {"measurement": "Subculture Series 9, growth", "setting": "[1]; NaOCl 200 ppm", "value": "+"}, {"measurement": "Subculture Series 10, growth", "setting": "[1]; NaOCl 200 ppm", "value": "+"}]}
{"smiles": "[O][Cl+][O-]", "note": "[Chlorine Dioxide, chlorine dioxide]", "values": [{"measurement": "% Reduction", "setting": "[2]; [3]", "value": 99.103, "unit": "%"}, {"measurement": "Survivors", "setting": "[2]; [3]", "value": "1,040,000"}, {"measurement": "% Reduction", "setting": "[2]; [4]", "value": 99.207, "unit": "%"}, {"measurement": "Survivors", "setting": "[2]; [4]", "value": "920,000"}, {"measurement": "% Reduction", "setting": "[2]; [5]", "value": "<97.845", "unit": "%"}, {"measurement": "Survivors", "setting": "[2]; [5]", "value": ">2,500,000"}, {"measurement": "% Reduction", "setting": "[2]; [6]", "value": "<97.845", "unit": "%"}, {"measurement": "Survivors", "setting": "[2]; [6]", "value": ">2,500,000"}, {"measurement": "% Reduction", "setting": "[2]; [7]", "value": "<97.845", "unit": "%"}, {"measurement": "Survivors", "setting": "[2]; [7]", "value": ">2,500,000"}, {"measurement": "germicidal efficacy expressed as equivalent concentration of sodium hypochlorite", "setting": "[1]; 15 ppm of ClO2 at pH 2.5", "value": 200, "unit": "ppm"}, {"measurement": "germicidal efficacy expressed as equivalent concentration of sodium hypochlorite", "setting": "[1]; 15 ppm of ClO2 at pH 3.75", "value": "> 100 ppm and < 200 ppm"}, {"measurement": "Subculture Series 1, growth", "setting": "[1]; ClO2 12 ppm, pH = 2.50", "value": "−"}, {"measurement": "Subculture Series 2, growth", "setting": "[1]; ClO2 12 ppm, pH = 2.50", "value": "−"}, {"measurement": "Subculture Series 3, growth", "setting": "[1]; ClO2 12 ppm, pH = 2.50", "value": "−"}, {"measurement": "Subculture Series 4, growth", "setting": "[1]; ClO2 12 ppm, pH = 2.50", "value": "−"}, {"measurement": "Subculture Series 5, growth", "setting": "[1]; ClO2 12 ppm, pH = 2.50", "value": "+"}, {"measurement": "Subculture Series 6, growth", "setting": "[1]; ClO2 12 ppm, pH = 2.50", "value": "+"}, {"measurement": "Subculture Series 7, growth", "setting": "[1]; ClO2 12 ppm, pH = 2.50", "value": "+"}, {"measurement": "Subculture Series 8, growth", "setting": "[1]; ClO2 12 ppm, pH = 2.50", "value": "+"}, {"measurement": "Subculture Series 9, growth", "setting": "[1]; ClO2 12 ppm, pH = 2.50", "value": "+"}, {"measurement": "Subculture Series 10, growth", "setting": "[1]; ClO2 12 ppm, pH = 2.50", "value": "+"}, {"measurement": "Subculture Series 1, growth", "setting": "[1]; ClO2 12 ppm, pH = 3.82", "value": "−"}, {"measurement": "Subculture Series 2, growth", "setting": "[1]; ClO2 12 ppm, pH = 3.82", "value": "−"}, {"measurement": "Subculture Series 3, growth", "setting": "[1]; ClO2 12 ppm, pH = 3.82", "value": "+"}, {"measurement": "Subculture Series 4, growth", "setting": "[1]; ClO2 12 ppm, pH = 3.82", "value": "+"}, {"measurement": "Subculture Series 5, growth", "setting": "[1]; ClO2 12 ppm, pH = 3.82", "value": "+"}, {"measurement": "Subculture Series 6, growth", "setting": "[1]; ClO2 12 ppm, pH = 3.82", "value": "+"}, {"measurement": "Subculture Series 7, growth", "setting": "[1]; ClO2 12 ppm, pH = 3.82", "value": "+"}, {"measurement": "Subculture Series 8, growth", "setting": "[1]; ClO2 12 ppm, pH = 3.82", "value": "+"}, {"measurement": "Subculture Series 9, growth", "setting": "[1]; ClO2 12 ppm, pH = 3.82", "value": "+"}, {"measurement": "Subculture Series 10, growth", "setting": "[1]; ClO2 12 ppm, pH = 3.82", "value": "+"}, {"measurement": "Subculture Series 1, growth", "setting": "[1]; ClO2 15 ppm, pH = 2.50", "value": "−"}, {"measurement": "Subculture Series 2, growth", "setting": "[1]; ClO2 15 ppm, pH = 2.50", "value": "−"}, {"measurement": "Subculture Series 3, growth", "setting": "[1]; ClO2 15 ppm, pH = 2.50", "value": "−"}, {"measurement": "Subculture Series 4, growth", "setting": "[1]; ClO2 15 ppm, pH = 2.50", "value": "−"}, {"measurement": "Subculture Series 5, growth", "setting": "[1]; ClO2 15 ppm, pH = 2.50", "value": "−"}, {"measurement": "Subculture Series 6, growth", "setting": "[1]; ClO2 15 ppm, pH = 2.50", "value": "−"}, {"measurement": "Subculture Series 7, growth", "setting": "[1]; ClO2 15 ppm, pH = 2.50", "value": "−"}, {"measurement": "Subculture Series 8, growth", "setting": "[1]; ClO2 15 ppm, pH = 2.50", "value": "−"}, {"measurement": "Subculture Series 9, growth", "setting": "[1]; ClO2 15 ppm, pH = 2.50", "value": "+"}, {"measurement": "Subculture Series 10, growth", "setting": "[1]; ClO2 15 ppm, pH = 2.50", "value": "+"}, {"measurement": "Subculture Series 1, growth", "setting": "[1]; ClO2 15 ppm, pH = 3.75", "value": "−"}, {"measurement": "Subculture Series 2, growth", "setting": "[1]; ClO2 15 ppm, pH = 3.75", "value": "−"}, {"measurement": "Subculture Series 3, growth", "setting": "[1]; ClO2 15 ppm, pH = 3.75", "value": "−"}, {"measurement": "Subculture Series 4, growth", "setting": "[1]; ClO2 15 ppm, pH = 3.75", "value": "−"}, {"measurement": "Subculture Series 5, growth", "setting": "[1]; ClO2 15 ppm, pH = 3.75", "value": "−"}, {"measurement": "Subculture Series 6, growth", "setting": "[1]; ClO2 15 ppm, pH = 3.75", "value": "+"}, {"measurement": "Subculture Series 7, growth", "setting": "[1]; ClO2 15 ppm, pH = 3.75", "value": "+"}, {"measurement": "Subculture Series 8, growth", "setting": "[1]; ClO2 15 ppm, pH = 3.75", "value": "+"}, {"measurement": "Subculture Series 9, growth", "setting": "[1]; ClO2 15 ppm, pH = 3.75", "value": "+"}, {"measurement": "Subculture Series 10, growth", "setting": "[1]; ClO2 15 ppm, pH = 3.75", "value": "+"}]}
